≈ marks a conversion by molar mass, not a printed value. Records with an inconclusive call do not appear. Calls of active or inactive are those of the source. The rule behind the calls is not given here.
Each molecule was assayed on M. tuberculosis H37Rv growth inhibition (assay: Confirmatory growth inhibition assay against Mycobacterium tuberculosis H37Rv, potency (AID 1949);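 note: bacteria grown 7 days with compound before Alamar blue readout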).

| Compound | IC50 |
| --- | --- |
| O=C(Oc1c(Cl)cc(Cl)c2cccnc12)c1cc(S(=O)(=O)N2CCCCC2)ccc1Cl | 0.48 µg/mL (≈ 0.96 µM) |
| CC(C)C1C(c2ccccc2)NC(c2ccccc2)CC1(O)c1ccc(F)cc1 (stereo unspecified) | 10.1 µg/mL (≈ 25.9 µM) |
| CC1CCN(c2ccc(N)cc2)CC1 | 5.71 µg/mL (≈ 30 µM) |
| Cc1ccc(-c2nnc(SC3=CS(=O)(=O)c4ccccc43)o2)cc1 | > 50 µg/mL (inactive) |
| Cc1cc2ncn(Cc3ccc(C(C)C)cc3)c2cc1C | 0.91 µg/mL (≈ 3.27 µM) |
| Cc1cccc(C(=O)NC(=S)Nc2ccc([N+](=O)[O-])cc2O)c1 | 0.19 µg/mL (≈ 0.573 µM) |
| Cc1cc(=O)oc2c(C)c(OCC(=O)OCc3ccccc3)ccc12 | 2.11 µg/mL (≈ 6.24 µM) |
| CC(=O)N1CCN(c2ccc(NC(=S)NC(=O)c3cc4ccccc4o3)cc2)CC1 | 2.74 µg/mL (≈ 6.49 µM) |
| Cc1cc2ncn(CCCOc3ccccc3C)c2cc1C | 4.63 µg/mL (≈ 15.7 µM) |
| CC(=O)NC(=S)NNC(=O)c1ccc(-c2ccccc2)cc1 | < 0.1 µg/mL |
| N#Cc1ccc(-c2nc(-c3ccccc3)c(-c3cccs3)[nH]2)cc1 | 5.89 µg/mL (≈ 18 µM) |
| COc1cc2cc(-c3nc4ccccc4[nH]3)c(N)nc2cc1OC | 3.24 µg/mL (≈ 10.1 µM) |
| Cc1ccc(N2CCN(CCNC(=S)Nc3cccc(C)c3C)CC2)c(Cl)c1 | 8.3 µg/mL (≈ 19.9 µM) |
| CC(C)c1ccc(OCC(=O)Nc2nc(C(C)(C)C)cs2)cc1 | 3.87 µg/mL (≈ 11.6 µM) |
| CCOc1ccc(OCC(=O)Nc2cc(C)cc(C)c2)cc1 | 1.51 µg/mL (≈ 5.04 µM) |
| Clc1ccc(OCc2ccccc2Cl)c(CNC2CCCCC2)c1 | 2.51 µg/mL (≈ 6.89 µM) |
| N#C/C(=C/c1ccc([N+](=O)[O-])o1)c1ccc(C#N)cc1 | 2.96 µg/mL (≈ 11.2 µM) |
| CCOc1ccc(OCC(=O)Nc2cccc(F)c2)cc1 | < 0.1 µg/mL |
| CCCCN1C(=O)C(=O)c2cc(Br)ccc21 | 9.17 µg/mL (≈ 32.5 µM) |
| CCC(C)c1ccc(O)c(NC(=S)NC(=O)c2cncc(Br)c2)c1 (stereo unspecified) | < 0.1 µg/mL |
| COc1cc(Br)cc2cc(C(=O)Nc3cccc(C(F)(F)F)c3)c(=O)oc12 | 0.11 µg/mL (≈ 0.249 µM) |
| Cn1nnc(NC(=O)COc2ccc(C3CCCCC3)cc2)n1 | 2.85 µg/mL (≈ 9.04 µM) |
| CC(C)Cc1nc2sc3c(c2c(=O)o1)CCCCC3 | 5.69 µg/mL (≈ 20.5 µM) |

| Compound | IC50 |
| --- | --- |
| COc1cc(CNc2ccc(F)c(Cl)c2)ccc1OCC(=O)NC1CCCCC1 | 5.53 µg/mL (≈ 13.1 µM) |
| O=C(Nc1cccc(Cl)c1)c1cc(Br)ccc1Cl | 1.53 µg/mL (≈ 4.43 µM) |
| COc1cc(C(=O)Oc2ccc3c(c2)CCCC3)cc(OC)c1OC | > 50 µg/mL (inactive) |
| CCOC(=O)COc1ccc2oc(C)c(C(=O)OC)c2c1 | 6.25 µg/mL (≈ 21.4 µM) |
| CCOc1ccc(NCCC(=O)c2ccc3c(c2)OCO3)cc1 | 3.32 µg/mL (≈ 10.6 µM) |
| COc1ccc(C(=O)NC(=S)Nc2ccc(N3CCCCC3)cc2)cc1OC | 1.38 µg/mL (≈ 3.45 µM) |
| COC(=O)c1sccc1NC(=O)c1c(F)c(F)c(F)c(F)c1F | 0.21 µg/mL (≈ 0.598 µM) |
| COc1ccc(Cc2nc3sc4c(c3c(=O)n2N)CCCC4)cc1 | > 50 µg/mL (inactive) |
| CN(C)CCCNc1nn2c(=O)c3c(-c4ccc(Cl)cc4)csc3nc2c2ccccc12 | 35.1 µg/mL (≈ 75.5 µM) |
| Cc1ccc(NC(=S)Nc2ccc(Cl)c(Cl)c2)c(OC(F)F)c1 | 2.92 µg/mL (≈ 7.74 µM) |
| COc1ccc(-c2nnc(SCC(=O)Nc3ccc([N+](=O)[O-])cc3)o2)cc1 | 0.64 µg/mL (≈ 1.66 µM) |
| COc1ccc(C(=O)O/N=C(\N)Cc2ccc(Cl)c(Cl)c2)cc1OC | 9.32 µg/mL (≈ 24.3 µM) |
| CCCC(=O)N1CCN(c2ccc(NC(=O)c3cc(Br)ccc3Cl)cc2Cl)CC1 | 3.52 µg/mL (≈ 7.05 µM) |
| CCOC(=O)c1c(NC(=O)c2c(F)c(F)c(F)c(F)c2F)sc(C(=O)OC)c1C | 0.37 µg/mL (≈ 0.846 µM) |
| COc1cccc(N2C(=O)c3cccc4cc([N+](=O)[O-])cc(c34)C2=O)c1 | 11 µg/mL (≈ 31.7 µM) |
| N#Cc1ccc(NC(=O)CSc2ccc(Br)cc2)cc1 | 3.04 µg/mL (≈ 8.75 µM) |
| CC(C)(C)c1ccc(Cn2cnc([N+](=O)[O-])n2)cc1 | < 0.1 µg/mL |
| OC(CN1CCCCCC1)CN1c2ccccc2Sc2ccccc21 (stereo unspecified) | 9.1 µg/mL (≈ 25.7 µM) |
| O=C(NC(=S)N1CCN(C/C=C/c2ccccc2)CC1)c1ccc(Cl)cc1 | 0.39 µg/mL (≈ 0.975 µM) |
| CC(=O)N(C)c1ccc(OCC(O)Cn2c3ccc(Cl)cc3c3cc(Cl)ccc32)cc1 (stereo unspecified) | 2.96 µg/mL (≈ 6.47 µM) |
| COC(=O)CSc1nnc(NC(=O)c2ccc(Cl)cc2)s1 | 0.16 µg/mL (≈ 0.465 µM) |
| Cc1ccc2nc(-c3ccncc3)cc(C(=O)Nc3ccncc3)c2c1 | > 50 µg/mL (inactive) |
| CC(=O)c1ccc(S(=O)(=O)c2ccc(C)cc2)c([N+](=O)[O-])c1 | 2.94 µg/mL (≈ 9.21 µM) |

Source: PubChem BioAssay AID1949 (Southern Research Institute, 2009)
